Patent US20250136722A1, “CYTOTOXICITY TARGETING CHIMERAS” (GLAXOSMITHKLINE INTELLECTUAL PROPERTY DEVELOPMENT LIMITED, priority 2021, published 2025)
Values joined by “and” are separate entries in the source; they are usually repeats but may differ in a detail not shown here. Equal entries are not always repeated.

The molecules below were run against T1, CHOK1 cells engineered to overexpress human CCR2 (Homo sapiens, UniProt P41597) (assay: Antibody dependent cellular cytotoxicity (ADCC) reporter assay (Example 199)). Settings: with anti-cotinine antibody SEQ ID NO: 11/12; CHOK1-human CCR2 target cells, Jurkat FcγRIIIa NFAT-luciferase reporter cells; 12-18 hours; read-out: ADCC Reporter Assay pEC50 (converted).
T1 construct: expressed in transfected cells; host or cells: CHOK1 cells
Type: cell-based
Summary of the method: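 Potency is reported as pEC50 from a nonlinear fit, averaged over runs, using luciferase signal divided by that of compound-free wells. The readout comes from NFAT-luciferase Jurkat cells expressing FcγRIIIa, mixed for 12–18 h with human CCR2-overexpressing CHOK1 cells, 1 pM–10 μM ARM compound and 0.01–200 μg/mL Fc-enhanced anti-cotinine IgG1.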

Point of comparison: `CN1C(=O)C[C@H](C(=O)NCCOCCOCCC(=O)N[C@H]2CC[C@@H](C(=O)N[C@@H]3C[C@H](NC(C)(C)C)CC[C@@H]3N3CC[C@H](Nc4ncnc5ccc(C(F)(F)F)cc45)C3=O)CC2)[C@H]1c1cccnc1` [Example 120, (2S,3S)-N-(2-(2-(3-(((1S,4s)-4-(((1R,2S,5R)-5-(tert-Butylamino)-2-((S)-2-oxo-3-((6-(trifluoromethyl)quinazolin-4-yl)amino)pyrrolidin-1-yl)cyclohexyl)carbamoyl)cyclohexyl)amino)-3-oxopropoxy)ethoxy)ethyl)-1-methyl-5-oxo-2-(pyridin-3-yl)pyrrolidine-3-carboxamide], EC50 5.46 nM. Against it:
- CC(C)N(C)[C@@H]1CC[C@H](N2CC[C@H](Nc3ncnc4ccc(C(F)(F)F)cc34)C2=O)[C@H](NC(=O)[C@H]2CC[C@H](c3ccc(C(=O)NCCOCCOCCNC(=O)[C@H]4CC(=O)N(C)[C@@H]4c4cccnc4)cn3)CC2)C1 [Example 139, 6-((1R,4r)-4-(((1R,2S,5R)-5-(Isopropyl(methyl)amino)-2-((S)-2-oxo-3-((6-(trifluoromethyl)quinazolin-4-yl)amino)pyrrolidin-1-yl)cyclohexyl)carbamoyl)cyclohexyl)-N-(2-(2-(2-((2S,3S)-1-methyl-5-oxo-2-(pyridin-3-yl)pyrrolidine-3-carboxamido)ethoxy)ethoxy)ethyl)nicotinamide] — within 1.5-fold, 3.98 nM
- CC(C)N(C)[C@@H]1CC[C@H](N2CC[C@H](Nc3ncnc4ccc(C(F)(F)F)cc34)C2=O)[C@H](NC(=O)[C@H]2CC[C@@H](NC(=O)CCOCCNC(=O)CCOCCCNC(=O)[C@H]3CC(=O)N(C)[C@@H]3c3cccnc3)CC2)C1 [Example 101] — 20-fold lower, 0.278 nM
- CC(C)N(C)[C@@H]1CC[C@H](N2CC[C@H](Nc3ncnc4ccc(C(F)(F)F)cc34)C2=O)[C@H](NC(=O)C2CCN(C3CCN(C4CCN(CCCCNC(=O)[C@H]5CC(=O)N(C)[C@@H]5c5cccnc5)CC4)CC3)CC2)C1 [Example 185, N-((1R,2S,5R)-5-(isopropyl(methyl)amino)-2-((S)-2-oxo-3-((6-(trifluoromethyl)quinazolin-4-yl)amino)pyrrolidin-1-yl)cyclohexyl)-1″-(4-((2S,3S)-1-methyl-5-oxo-2-(pyridin-3-yl)pyrrolidine-3-carboxamido)butyl)-[1,4′:1′,4″-terpiperidine]-4-carboxamide] — 11-fold lower, 0.501 nM
- CC(C)N(C)[C@@H]1CC[C@H](N2CC[C@H](Nc3ncnc4ccc(C(F)(F)F)cc34)C2=O)[C@H](NC(=O)C23CCC(NC(=O)CCOCCOCCOCCNC(=O)[C@H]4CC(=O)N(C)[C@@H]4c4cccnc4)(CC2)CC3)C1 [Example 25] — 3.7-fold higher, 20 nM
- CC(C)N(C)[C@@H]1CC[C@H](N2CC[C@H](Nc3ncnc4ccc(C(F)(F)F)cc34)C2=O)[C@H](NC(=O)c2ccc(OC3CCN(CCOCCOCCNC(=O)[C@H]4CC(=O)N(C)[C@@H]4c4cccnc4)CC3)cc2)C1 [Example 91] — 2.7-fold lower, 2 nM
- CC(C)N(C)[C@@H]1CC[C@H](N2CC[C@H](Nc3ncnc4ccc(C(F)(F)F)cc34)C2=O)[C@H](NC(=O)CCCCOCCCCCCCCOCCCCNC(=O)[C@H]2CC(=O)N(C)[C@@H]2c2cccnc2)C1 [Example 161, (2S,3S)-N-(4-((8-((5-(((1R,2S,5R)-5-(Isopropyl(methyl)amino)-2-((S)-2-oxo-3-((6-(trifluoromethyl)quinazolin-4-yl)amino)pyrrolidin-1-yl)cyclohexyl)amino)-5-oxopentyl)oxy)octyl)oxy)butyl)-1-methyl-5-oxo-2-(pyridin-3-yl)pyrrolidine-3-carboxamide] — 3.5-fold lower, 1.58 nM
- CC(C)N(C)[C@@H]1CC[C@H](N2CC[C@H](Nc3ncnc4ccc(C(F)(F)F)cc34)C2=O)[C@H](NC(=O)c2cc(NCCOCCOCCOCCOCCNC(=O)[C@H]3CC(=O)N(C)[C@@H]3c3cccnc3)ncn2)C1 [Example 127] — 5.5-fold lower, 1 nM
- CC(C)N(C)[C@@H]1CC[C@H](N2CC[C@H](Nc3ncnc4ccc(C(F)(F)F)cc34)C2=O)[C@H](NC(=O)C2CCN(C3CCN(C(=O)CCCCCNC(=O)[C@H]4CC(=O)N(C)[C@@H]4c4cccnc4)CC3)CC2)C1 [Example 87] — within 1.5-fold, 3.98 nM
- CC(C)N(C)[C@@H]1CC[C@H](N2CC[C@H](Nc3ncnc4ccc(C(F)(F)F)cc34)C2=O)[C@H](NC(=O)[C@H]2CC[C@H](c3ccc(C(=O)NCCOCCOCCNC(=O)[C@H]4CC(=O)N(C)[C@@H]4c4cccnc4)nc3)CC2)C1 [Example 141] — 2.7-fold lower, 2 nM
- CC(C)N(C)[C@@H]1CC[C@H](N2CC[C@H](Nc3ncnc4ccc(C(F)(F)F)cc34)C2=O)[C@H](NC(=O)[C@H]2CC[C@@H](NC(=O)C3CCC4(CC3)CCN(C(=O)[C@H]3CC(=O)N(C)[C@@H]3c3cccnc3)CC4)CC2)C1 [Example 95, N-((1 S,4R)-4-(((1R,2S,5R)-5-(Isopropyl(methyl)amino)-2-((S)-2-oxo-3-((6-(trifluoromethyl)quinazolin-4-yl)amino)pyrrolidin-1-yl)cyclohexyl)carbamoyl)cyclohexyl)-3-((2S,3S)-1-methyl-5-oxo-2-(pyridin-3-yl)pyrrolidine-3-carbonyl)-3-azaspiro[5.5]undecane-9-carboxamide] — within 1.5-fold, 6.31 nM
- CC(C)N(C)[C@@H]1CC[C@H](N2CC[C@H](Nc3ncnc4ccc(C(F)(F)F)cc34)C2=O)[C@H](NC(=O)COCCNC(=O)CNC(=O)COCCOCCNC(=O)[C@H]2CC(=O)N(C)[C@@H]2c2cccnc2)C1 [Example 78] — within 1.5-fold, 5.52 nM
- CC(C)N(C)[C@@H]1CC[C@H](N2CC[C@H](Nc3ncnc4ccc(C(F)(F)F)cc34)C2=O)[C@H](NC(=O)[C@H]2CC[C@H](N3CCN(C4CC(CCNC(=O)[C@H]5CC(=O)N(C)[C@@H]5c5cccnc5)C4)CC3)CC2)C1 (stereo partly drawn) [Example 97, (2S,3S)-N-(2-(3-(4-((1R,4S)-4-(((1R,2S,5R)-5-(Isopropyl(methyl)amino)-2-((S)-2-oxo-3-((6-(trifluoromethyl)quinazolin-4-yl)amino)pyrrolidin-1-yl)cyclohexyl)carbamoyl)cyclohexyl)piperazin-1-yl)cyclobutyl)ethyl)-1-methyl-5-oxo-2-(pyridin-3-yl)pyrrolidine-3-carboxamide] — within 1.5-fold, 6.31 nM
- CC(C)N(C)[C@@H]1CC[C@H](N2CC[C@H](Nc3ncnc4ccc(C(F)(F)F)cc34)C2=O)[C@H](NC(=O)CCCCCCCCNCCCCCCCCCCNC(=O)[C@H]2CC(=O)N(C)[C@@H]2c2cccnc2)C1 [compound 196] — 22-fold lower, 0.251 nM
- CC(C)N(C)[C@@H]1CC[C@H](N2CC[C@H](Nc3ncnc4ccc(C(F)(F)F)cc34)C2=O)[C@H](NC(=O)CCCNC(=O)CCCC(=O)NCCCOCCCNC(=O)[C@@H]2CC(=O)N(C)[C@H]2c2cccnc2)C1 [Example 21] — 12-fold lower, 0.469 nM
- CC(C)N(C)[C@@H]1CC[C@H](N2CC[C@H](Nc3ncnc4ccc(C(F)(F)F)cc34)C2=O)[C@H](NC(=O)C2CCN(CCOCCOCCOCCOCCNC(=O)[C@H]3CC(=O)N(C)[C@@H]3c3cccnc3)CC2)C1 [Example 147] — 4.3-fold lower, 1.26 nM
- CC(C)N(C)[C@@H]1CC[C@H](N2CC[C@H](Nc3ncnc4ccc(C(F)(F)F)cc34)C2=O)[C@H](NC(=O)C2CCC(N3CCC(S(=O)(=O)NCCCCCCNC(=O)[C@H]4CC(=O)N(C)[C@@H]4c4cccnc4)CC3)CC2)C1 (single isomer, unassigned) [Example 148] — 1.7-fold lower, 3.16 nM
- CC(C)N(C)[C@@H]1CC[C@H](N2CC[C@H](Nc3ncnc4ccc(C(F)(F)F)cc34)C2=O)[C@H](NC(=O)C2CC=C(c3ccc(OCCCCCCNC(=O)[C@H]4CC(=O)N(C)[C@@H]4c4cccnc4)cc3)CC2)C1 (stereo partly drawn) [Example 158, (2S,3S)-N-(6-((4′-(((1R,2S,5R)-5-(Isopropyl(methyl)amino)-2-((S)-2-oxo-3-((6-(trifluoromethyl)quinazolin-4-yl)amino)pyrrolidin-1-yl)cyclohexyl)carbamoyl)-2′,3′,4′,5′-tetrahydro-[1,1′-biphenyl]-4-yl)oxy)hexyl)-1-methyl-5-oxo-2-(pyridin-3-yl)pyrrolidine-3-carboxamide] — 2.2-fold lower, 2.51 nM
- CC(C)N(C)[C@@H]1CC[C@H](N2CC[C@H](Nc3ncnc4ccc(C(F)(F)F)cc34)C2=O)[C@H](NC(=O)[C@H]2CC[C@@H](N3CCC(C(=O)NCCOCCOCCNC(=O)[C@H]4CC(=O)N(C)[C@@H]4c4cccnc4)CC3)CC2)C1 [Example 134] — 87-fold lower, 0.0631 nM

With `CC(C)N(C)[C@@H]1CC[C@H](N2CC[C@H](Nc3ncnc4ccc(C(F)(F)F)cc34)C2=O)[C@H](NC(=O)[C@H]2CC[C@@H](NC(=O)CCOCCOCCNC(=O)CCCNC(=O)[C@H]3CC(=O)N(C)[C@@H]3c3cccnc3)CC2)C1` [Example 176, (2S,3S)-N-(4-((2-(2-(3-(((1S,4s)-4-(((1R,2S,5R)-5-(Isopropyl(methyl)amino)-2-((S)-2-oxo-3-((6-(trifluoromethyl)quinazolin-4-yl)amino)pyrrolidin-1-yl)cyclohexyl)carbamoyl)cyclohexyl)amino)-3-oxopropoxy)ethoxy)ethyl)amino)-4-oxobutyl)-1-methyl-5-oxo-2-(pyridin-3-yl)pyrrolidine-3-carboxamide] the EC50 was 0.794 nM and 0.398 nM.
